Activity calls are given as the source filed them. The calls are words filed in the database; no cut-off is given here.

For test [1], the target named is T1, Cannabinoid receptor 1 (Homo sapiens, UniProt P21554). In words: Antagonist activity at human CB1 Receptor expressed in CHO cell membranes measured after 24 hrs by HTRF assay. In kind it is functional, Cell membrane. (In general: TR-FRET usually uses a lanthanide donor and a delayed reading to cut background.)
Test [2] concerns the target T2, Cannabinoid receptor 2 (Homo sapiens, UniProt P34972). The experiment in a line: Antagonist activity at human CB2 Receptor expressed in CHO cell membranes measured after 24 hrs by HTRF assay. In kind it is functional, Cell membrane.
For test [3], the target named is T2, Cannabinoid receptor 2. The experiment in a line: Antagonist activity at human CB2 Receptor expressed in CHO-K1 cells assessed as reduction in CP55940-induced ERK1/2 phosphorylation measured Western blot analysis. In kind it is functional, cell-based. Conditions: filed as antagonist. For orientation: Immunoblotting shows a protein as a band on a membrane.
In test [4] the target is T1, Cannabinoid receptor 1. The experiment in a line: Antagonist activity at human CB1 Receptor expressed in CHO-K1 cells assessed as reduction in CP55940-induced ERK1/2 phosphorylation measured Western blot analysis. Type of test: functional, cell-based.

T1 sequence (P21554 whole entry): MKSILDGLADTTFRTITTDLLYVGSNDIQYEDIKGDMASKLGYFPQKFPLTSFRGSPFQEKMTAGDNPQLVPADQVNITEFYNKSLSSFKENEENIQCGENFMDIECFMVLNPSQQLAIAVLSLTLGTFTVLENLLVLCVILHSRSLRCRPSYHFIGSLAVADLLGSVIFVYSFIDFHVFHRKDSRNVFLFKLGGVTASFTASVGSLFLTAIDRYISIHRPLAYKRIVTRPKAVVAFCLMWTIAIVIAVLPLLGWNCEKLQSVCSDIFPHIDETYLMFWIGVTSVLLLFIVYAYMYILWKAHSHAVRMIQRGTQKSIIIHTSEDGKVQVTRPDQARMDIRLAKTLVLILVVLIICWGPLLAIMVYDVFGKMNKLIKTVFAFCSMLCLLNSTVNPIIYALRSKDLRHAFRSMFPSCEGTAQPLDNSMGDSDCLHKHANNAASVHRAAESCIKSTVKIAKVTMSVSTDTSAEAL
T2 sequence (P34972 whole entry): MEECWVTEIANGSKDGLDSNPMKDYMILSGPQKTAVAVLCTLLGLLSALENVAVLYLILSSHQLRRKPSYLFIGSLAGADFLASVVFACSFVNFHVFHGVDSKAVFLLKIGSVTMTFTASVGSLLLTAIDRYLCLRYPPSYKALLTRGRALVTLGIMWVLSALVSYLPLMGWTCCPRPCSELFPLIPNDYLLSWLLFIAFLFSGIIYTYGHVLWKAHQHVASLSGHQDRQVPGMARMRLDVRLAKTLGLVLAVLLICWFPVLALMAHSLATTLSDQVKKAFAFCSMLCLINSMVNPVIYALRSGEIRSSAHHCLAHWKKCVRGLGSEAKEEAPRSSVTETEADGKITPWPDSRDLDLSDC

Broadly, the IC50 is the concentration that inhibits the measured activity by half. Lower therefore signals higher potency. On to `Cc1c(C(=O)NCc2cccc(/N=N\c3ccccc3)c2)nn(CCCCCO)c1-c1ccccc1`, for which the IC50 in test [1] was 5.8 µM; in test [2], 7 µM.

`Cc1c(C(=O)NCc2cccc(/N=N/c3ccccc3)c2)nn(CCCCCO)c1-c1ccccc1` had an IC50 in test [1] of 9.4 µM. Same read-out and setting: the result for `Cc1c(C(=O)NCCCc2ccc(/N=N/c3ccccc3)cc2)nn(CCCCCO)c1-c1ccccc1` reads 7.2 µM. Turning to `Cc1c(C(=O)NCCc2ccccc2/N=N\c2ccccc2)nn(CCCCCO)c1-c1ccccc1`, the IC50 came out at 1.7 µM in test [1] and 0.36 µM in test [2]. The matching figures for `Cc1c(C(=O)NCCCc2cccc(/N=N/c3ccccc3)c2)nn(CCCCCO)c1-c1ccccc1`: 4.8 µM and 3.7 µM. Regarding `Cc1c(C(=O)Nc2ccccc2/N=N\c2ccccc2)nn(CCCCCO)c1-c1ccccc1`, the IC50 in test [2] was found to be 0.62 µM. `Cc1c(C(=O)NCc2ccccc2/N=N\c2ccccc2)nn(CCCCCO)c1-c1ccccc1`: in test [3], the result was Active. Further, the outcome in test [4] was inactive. Further, the results for the IC50 in test [1] and in test [2] were 1.1 µM and 0.07 µM, respectively. For the compound `Cc1c(C(=O)NCc2ccc(/N=N\c3ccccc3)cc2)nn(CCCCCO)c1-c1ccccc1`, the results for the IC50 in test [1] and in test [2] were 4.1 µM and 6.9 µM, respectively. The matching figures for `Cc1c(C(=O)Nc2cccc(/N=N\c3ccccc3)c2)nn(CCCCCO)c1-c1ccccc1`: 2.4 µM and 0.41 µM. In the same order, the values of `Cc1c(C(=O)NCCc2ccccc2/N=N/c2ccccc2)nn(CCCCCO)c1-c1ccccc1` are 3.8 µM and 2.1 µM. On to `Cc1c(C(=O)Nc2ccc(/N=N\c3ccccc3)cc2)nn(CCCCCO)c1-c1ccccc1`, for which it took 9 µM to reach half-maximal inhibition in test [2] (IC50). For the compound `Cc1c(C(=O)Nc2cccc(/N=N/c3ccccc3)c2)nn(CCCCCO)c1-c1ccccc1`, the IC50 came out at 6.2 µM in test [1] and 1.5 µM in test [2]. The matching figures for `Cc1c(C(=O)NCCCc2ccccc2/N=N\c2ccccc2)nn(CCCCCO)c1-c1ccccc1`: 3.9 µM and 1.3 µM. Regarding `Cc1c(C(=O)NCCc2cccc(/N=N\c3ccccc3)c2)nn(CCCCCO)c1-c1ccccc1`, the values for the IC50 in test [1] and in test [2] were 3.3 µM and 1.6 µM, respectively. `Cc1c(C(=O)NCc2ccccc2/N=N/c2ccccc2)nn(CCCCCO)c1-c1ccccc1`: in test [3], the result was Active. In test [4], the outcome was inactive. Also, the IC50 in test [1] amounted to 1.6 µM; in test [2], 3.2 µM. Turning to `Cc1c(C(=O)Nc2ccccc2/N=N/c2ccccc2)nn(CCCCCO)c1-c1ccccc1`, the IC50 in test [2] came to 5.5 µM.

`Cc1c(C(=O)NCCCc2ccccc2/N=N/c2ccccc2)nn(CCCCCO)c1-c1ccccc1`: the 50% inhibitory concentration (IC50) is 9 µM in test [1] and 3.4 µM in test [2]. Consider `Cc1c(C(=O)NCCc2ccc(/N=N/c3ccccc3)cc2)nn(CCCCCO)c1-c1ccccc1`, for which the IC50 in test [1] was determined as 7.9 µM.

As to `Cc1c(C(=O)NCCCc2ccc(/N=N\c3ccccc3)cc2)nn(CCCCCO)c1-c1ccccc1`, the IC50 in test [1] is 5.4 µM; in test [2] it was 3.5 µM.

In turn, `Cc1c(C(=O)NCc2ccc(/N=N/c3ccccc3)cc2)nn(CCCCCO)c1-c1ccccc1` had an IC50 in test [1] of 8.3 µM.

As to `Cc1c(C(=O)NCCc2cccc(/N=N/c3ccccc3)c2)nn(CCCCCO)c1-c1ccccc1`, the half-inhibitory concentration (IC50) in test [1] came out at 5.9 µM; in test [2] it was 6.5 µM. In the same order, the values of `Cc1c(C(=O)NCCCc2cccc(/N=N\c3ccccc3)c2)nn(CCCCCO)c1-c1ccccc1` are 3.8 µM and 1.1 µM. Regarding `Cc1c(C(=O)NCCc2ccc(/N=N\c3ccccc3)cc2)nn(CCCCCO)c1-c1ccccc1`, the figures for the IC50 in test [1] and in test [2] were 3.3 µM and 5.2 µM, respectively.
